Assays:
Format in all cases: cell-based, human
[1] = tested on: PC-3 dual cells; experiment: DNA extraction and agarose gel electrophoresis (1.8%) for DNA fragmentation; conditions: Taxol 0.8 μg/ml
Description: (§1) PC-3 dual cells were treated with Taxol™ (0.8 ug/ml); thymidine (2 mM), and vinblastine (60 nM). Real-time imaging was done at 0, 12, 24, 36, and 48 hours. Cells were collected for DNA extraction and agarose gel electrophoresis (1.8%) analysis. […] The nuclear ring structures were […] by 24 hours.

[2] = tested on: PC-3 dual cells; experiment: Real-time visualization of drug-induced apoptosis and nuclear morphology in dual-labeled cells
Text: The dual-color cells could be easily placed in their cell cycle position by the “nuclear-cytoplasmic” ratio as observed in living cells. For fluorescence microscopy of these cells, a Leica fluorescence stereo microscope model LZ12 equipped with a mercury 50W lamp power supply was used. To visualize both GFP and RFP fluorescence at the same time, excitation was produced through a D425/60 band pass filter, 470 DCXR dichroic mirror, and emitted fluorescence was collected through a long pass filter GG475 (Chroma Technology, Brattleboro, Vt.).
as §1

[3] = tested on: HT-1080-dual-6 cells; experiment: Real time observation of apoptotic process in vitro by fluorescence microscopy; conditions: 2 μM staurosporine; for apoptosis induction: imaged every 2 hours up to 12 hours; for nuclear/cytoplasmic morphology during apoptosis: images at 2-12 hours
Description: HT-1080-dual-6 cells were incubated with 2 μM staurosporine for apoptosis induction. The cells were visualized under blue light and images were captured with a CCD camera and fluorescence microscope. […] Bar, 50 μm. […] Bar, 10 μm.
To capture the images of real time apoptotic processes, the HT-1080-dual-6 clone was used. Staurosporine (Alexis, San Diego, Calif.), dissolved in DMSO and stored at −80 degrees, was used for induction of apoptosis. 3×10^5 cells were seeded in a 25 cm^2 flask with RPMI 1640 with 10% FBS. Staurosporine was added the next day at a concentration of 2 μM. Every 2 hours, the flask was set under the fluorescent stereo microscope and real time images were captured at each time point.

For CC(=O)O[C@H]1C(=O)[C@@]2(C)[C@H]([C@H](OC(=O)c3ccccc3)[C@]3(O)C[C@H](OC(=O)[C@H](O)[C@@H](NC(=O)c4ccccc4)c4ccccc4)C(C)=C1C3(C)C)[C@]1(OC(C)=O)CO[C@@H]1C[C@@H]2O [Taxol™, Paclitaxel], the “DNA fragmentation by gel electrophoresis” value ([1]; 24 hours) was “before DNA fragmentation occurred”, the “DNA fragmentation by gel electrophoresis” value ([1]; 48 hours) was “DNA fragmentation could be observed” and the “effect on nuclei (morphology)” value ([2]; Taxol 0.8 μg/ml, by 24 hours) was “form a ring-shaped structure”. For the same compound, the “apoptosis (aberrant nuclear structures and fragmentation)” value ([2]; Taxol 0.8 μg/ml, by 48 hours) was “entering apoptosis with very aberrant nuclear structures and fragmentation”.
For CN[C@@H]1C[C@H]2O[C@@](C)([C@@H]1OC)n1c3ccccc3c3c4c(c5c6ccccc6n2c5c31)C(=O)NC4 [Staurosporine], the apoptosis induction [3] was “induced apoptosis”, the apoptosis induction ([3]; listed as staurosporine) was “Apoptosis was well induced” and the “nuclear/cytoplasmic morphology during apoptosis” value [3] was “Progressive fragmentation of nucleus”. The “nuclear/cytoplasmic morphology during apoptosis” value ([3]; listed as staurosporine) was “condensation of cytoplasm and nucleus and fragmentation of nucleus”.
For CC[C@]1(O)C[C@@H]2CN(CCc3c([nH]c4ccccc34)[C@@](C(=O)OC)(c3cc4c(cc3OC)N(C)[C@H]3[C@@](O)(C(=O)OC)[C@H](OC(C)=O)[C@]5(CC)C=CCN6CC[C@]43[C@@H]65)C2)C1 [vinblastine], the “effect on cell nuclei and cytoplasm (morphology)” value ([2]; vinblastine 60 nM) was “nuclei became more condensed and the cytoplasm appeared to expand”.
